Among the data in patent US8263606B2 (Xenon Pharmaceuticals Inc., priority 2008, dated 2012) are IC50 and inhibition values, retold here.

As usually defined, the IC50 is the concentration at which inhibition is half-maximal. The term inhibition denotes the relative decrease from the control value, in per cent.

In series [1] the test system is sodium channel. The series can be described thus: Guanidine influx assay (14C-guanidine radiotracer flux, in vitro). Format: cell-based, human or rat. Conditions: guanidine influx assay using a known cell line that expresses a sodium channel. Put shortly:
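Human or rat sodium channels stably expressed in endogenous or recombinant cells, plated ~100,000 cells/well for 20-24 h at 37 °C. Cells were treated with test agent in low-sodium choline HEPES saline plus aconitine and 14C-guanidine at ambient temperature, washed, and counted by scintillation; IC50 from 4-parameter logistic fit.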

In series [2] the target is CYP3A4 (Homo sapiens, UniProt P08684). Kind of series: Cytochrome P450 (CYP450) Inhibition Assay, CYP3A4 (Vivid fluorescence, BOMCC substrate). Conditions: human, P450 Baculosomes (recombinant CYP3A4), probe BOMCC (Vivid substrate).

Molecules are shown by their SMILES.

CYP3A4, sequence (P08684 whole entry): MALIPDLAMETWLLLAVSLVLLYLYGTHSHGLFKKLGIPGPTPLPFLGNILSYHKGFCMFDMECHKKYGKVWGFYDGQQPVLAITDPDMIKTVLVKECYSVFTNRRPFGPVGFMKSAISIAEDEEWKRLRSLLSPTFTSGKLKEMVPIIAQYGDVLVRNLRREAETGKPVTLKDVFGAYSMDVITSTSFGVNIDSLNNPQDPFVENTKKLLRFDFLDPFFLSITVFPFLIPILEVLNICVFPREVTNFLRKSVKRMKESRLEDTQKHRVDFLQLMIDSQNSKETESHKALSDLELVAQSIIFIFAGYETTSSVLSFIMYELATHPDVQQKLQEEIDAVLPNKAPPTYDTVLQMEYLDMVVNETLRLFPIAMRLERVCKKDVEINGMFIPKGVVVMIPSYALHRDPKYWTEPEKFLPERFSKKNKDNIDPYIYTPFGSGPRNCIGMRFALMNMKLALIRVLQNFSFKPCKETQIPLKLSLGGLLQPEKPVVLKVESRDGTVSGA

As for `O=C1N(Cc2ccccc2OC(F)(F)F)c2ccccc2C12COc1cc3c(cc12)OCCO3` (stereo not shown) [Example 7.27, 1′-[(2-trifluoromethoxy)benzyl]-2,3-dihydrospiro[furo[2,3-g][1,4]benzodioxine-8,3′-indol]-2′(1′H)-one], the IC50 in series [1] (activity level class) fell in the range of 0.001 to 0.1 µM. The inhibition at 10 µM in series [2] was less than 50%.
As to `CC1(C)COC(C)(CCN2C(=O)C3(COc4cc5c(cc43)OCCO5)c3ccccc32)OC1` (stereo not shown) [Example 7.28], the IC50 in series [1] (activity level class) fell in the range of 0.001 to 0.1 µM. Moreover, in series [2], the inhibition at 10 µM was more than 50%.
For the compound `O=C1N(C[C@H]2CCCO2)c2c(F)cccc2C12COc1cc3c(cc12)CCO3` (stereo partly drawn) [Example 8.2, 7′-fluoro-1′-[(2R)-tetrahydrofuran-2-ylmethyl]-5,6-dihydrospiro[benzo[1,2-b:5,4-b′]difuran-3,3′-indol]-2′(1′H)-one], the IC50 in series [1] (activity level class) lay within 0.001 to 0.1 µM. For the same compound, the inhibition at 10 µM in series [2] was less than 50%.
On to `O=C1N(Cc2cncc(F)c2)c2ccccc2C12COc1cc3c(cc12)OCCO3` (stereo not shown) [Example 8.18, 1′-[(5-fluoropyridin-3-yl)methyl]-2,3-dihydrospiro[furo[2,3-g][1,4]benzodioxine-8,3′-indol]-2′(1′H)-one], for which the IC50 in series [1] (activity level class) was in the range of 0.001 to 0.1 µM. In addition, the inhibition at 10 µM in series [2] is more than 50%.
The matching figures for `COC(=O)c1ccccc1CN1C(=O)C2(COc3cc4c(cc32)CCO4)c2ccccc21` (stereo not shown) [Example 9.14, methyl 2-[(2′-oxo-5,6-dihydrospiro[benzo[1,2-b:5,4-b′]difuran-3,3′-indol]-1′(2′H)-yl)methyl]benzoate]: 0.001 to 0.1 µM and less than 50%.
For the compound `COc1cc2c(cc1F)C1(CO2)C(=O)N(CC2CCOCC2)c2ccccc21` (stereo not shown) [Example 9.29, 5-fluoro-6-methoxy-1-(tetrahydro-2H-pyran-4-ylmethyl)spiro[1-benzofuran-3,3′-indol]-2′(1′H)-one], the IC50 in series [1] (activity level class) lay within 1 to 10 µM. In addition, the inhibition at 10 µM in series [2] was less than 50%.
For `O=C1N(Cc2ccc(C(F)(F)F)o2)c2ccccc2C12COc1cc(F)c(F)cc12` (stereo not shown) [Example 9.32, 5,6-difluoro-1′-{[5-(trifluoromethyl)furan-2-yl]methyl}spiro[1-benzofuran-3,3′-indol]-2′(1′H)-one] the same measures were 1 to 10 µM and more than 50%.
For `COc1ccc2c(c1)OCC21C(=O)N(CC2CCOCC2)c2ccccc21` (stereo not shown) [Example 9.35, 6-methoxy-1′-(tetrahydro-2H-pyran-4-ylmethyl)spiro[1-benzofuran-3,3′-indol]-2′(1′H)-one] the same measures were 0.1 to 1 µM and more than 50%.
The matching figures for `COc1ccc2c(c1)OCC21C(=O)N(CC2CCCCO2)c2ccccc21` (stereo not shown) [Example 9.36, 6-methoxy-1′-(tetrahydro-2H-pyran-2-ylmethyl)spiro[1-benzofuran-3,3′-indol]-2′(1′H)-one]: 0.001 to 0.1 µM and less than 50%.
With `N#Cc1cc2c(cc1F)OCC21C(=O)N(Cc2ccccc2C(F)(F)F)c2ccccc21` (stereo not shown) [Example 9.50, 6-fluoro-2′-oxo-1′-[2-(trifluoromethyl)benzyl]-1′,2′-dihydrospiro[1-benzofuran-3,3′-indole]-5-carbonitrile], the IC50 in series [1] (activity level class) lay in the range of 1 to 10 µM. Besides, in series [2], the inhibition at 10 µM was more than 50%.
As to `COCCOCCN1C(=O)C2(COc3cc4onc(C)c4cc32)c2ccccc21` (stereo not shown) [Example 9.54, 1′-[2-(2-methoxyethoxy)ethyl]-3-methylspiro[furo[3,2-f][1,2]benzisoxazole-5,3′-indol]-2′(1′H)-one], in series [1], the IC50 lay within 0.1 to 1 µM. For the same compound, in series [2], the inhibition at 10 µM is less than 50%.
For `O=C1N(Cc2ccccn2)c2ccccc2C12COc1cc(F)c(F)cc12` (stereo not shown) [Example 9.64, 5,6-difluoro-1′-(pyridin-2-ylmethyl)spiro[1-benzofuran-3,3′-indol]-2′(1′H)-one] the same measures were 0.1 to 1 µM and less than 50%.
The matching figures for `O=C1N(CC2CCOCC2)c2ccccc2C12COc1cc(F)c(F)cc12` (stereo not shown) [Example 9.65, 5,6-difluoro-1′-(tetrahydro-2H-pyran-4-ylmethyl)spiro[1-benzofuran-3,3′-indol]-2′(1′H)-one]: 1 to 10 µM and less than 50%.
The matching figures for `COCCOCCN1C(=O)[C@@]2(COc3cc4c(cc32)OCCO4)c2ccccc21` [Example 9.70, (8S)-1′-[2-(2-methoxyethoxy)ethyl]-2,3-dihydrospiro[furo[2,3-g][1,4]benzodioxine-8,3′-indol]-2′(1′H)-one]: 0.001 to 0.1 µM and less than 50%.
`COCCOCCN1C(=O)C2(COc3cc(OCCOC)ccc32)c2ccccc21` (stereo not shown) [Example 9.75, 6-(2-methoxyethoxy)-1′-[2-(2-methoxyethoxy)ethyl]spiro[1-benzofuran-3,3′-indol]-2′(1′H)-one]: the IC50 in series [1] is 0.1 to 1 µM. Further, the inhibition at 10 µM in series [2] is less than 50%.
The matching figures for `COCCOCCN1C(=O)C2(COc3ccc(OCCOC)cc32)c2ccccc21` (stereo not shown) [Example 9.76, 5-(2-methoxyethoxy)-1′-[2-(2-methoxyethoxy)ethyl]spiro[1-benzofuran-3,3′-indol]-2′(1′H)-one]: 0.1 to 1 µM and less than 50%.
For `O=C1N(Cc2cnc(Cl)s2)c2ccccc2C12COc1cc3c(cc12)OCO3` (stereo not shown) [Example 11, 1′-[(2-chloro-1,3-thiazol-5-yl)methyl]spiro[furo[2,3-f][1,3]benzodioxole-7,3′-indol]-2′(1′H)-one] the same measures were 0.001 to 0.1 µM and more than 50%.
In the case of `O=C1N(CC2CCNCC2)c2ccccc2C12COc1cc3c(cc12)CCO3` (stereo not shown) [Example 11.5, 1-(piperidin-4-ylmethyl)-5,6-dihydrospiro[benzo[1,2-b:5,4-b′]difuran-3,3′-indol]-2′(1′H)-one], the IC50 in series [1] lay in the range of 1 to 10 µM. In addition, the inhibition at 10 µM in series [2] was less than 50%.
For `CC(C)N1CCC(CN2C(=O)C3(COc4cc5c(cc43)CCO5)c3ccccc32)CC1` (stereo not shown) [Example 11.6, 1′-{[1-(1-methylethyl)piperidin-4-yl]methyl}-5,6-dihydrospiro[benzo[1,2-b:5,4-b′]difuran-3,3′-indol]-2′(1′H)-one] the same measures were 1 to 10 µM and more than 50%.
For `CCN1CCC(CN2C(=O)C3(COc4cc5c(cc43)CCO5)c3ccccc32)CC1` (stereo not shown) [Example 11.8, 1-[(1-ethylpiperidin-4-yl)methyl]-5,6-dihydrospiro[benzo[1,2-b:5,4-b′]difuran-3,3′-indol]-2′(1′H)-one] the same measures were 1 to 10 µM and more than 50%.
The matching figures for `O=C1N(Cc2ccc(-c3ccncc3)o2)c2ccccc2C12COc1cc3c(cc12)CCO3` (stereo not shown) [Example 11.15, 1′-[(5-pyridin-4-ylfuran-2-yl)methyl]-5,6-dihydrospiro[benzo[1,2-b:5,4-b′]difuran-3,3′-indol]-2′(1′H)-one]: 0.1 to 1 µM and more than 50%.
In the case of `O=C1N(Cc2ccc(-c3cccnc3)cc2)c2ccccc2C12COc1cc3c(cc12)CCO3` (stereo not shown) [Example 11.16, 1′-(4-pyridin-3-ylbenzyl)-5,6-dihydrospiro[benzo[1,2-b:5,4-b′]difuran-3,3′-indol]-2′(1′H)-one], the IC50 in series [1] is 0.1 to 1 µM. Further, in series [2], the inhibition at 10 µM is more than 50%.
For `O=C1N(Cc2ccc(-c3ccccc3F)cc2)c2ccccc2C12COc1cc3c(cc12)CCO3` (stereo not shown) [Example 11.17, 1′-[(2′-fluorobiphenyl-4-yl)methyl]-5,6-dihydrospiro[benzo[1,2-b:5,4-b′]difuran-3,3′-indol]-2′(1′H)-one] the same measures were 0.1 to 1 µM and less than 50%.
On to `O=C(O)c1ccccc1CN1C(=O)C2(COc3cc4c(cc32)CCO4)c2ccccc21` (stereo not shown) [Example 11.30, 2-[(2′-oxo-5,6-dihydrospiro[benzo[1,2-b:5,4-b′]difuran-3,3′-indol]-1′(2′H)-yl)methyl]benzoic acid], for which the 50% inhibitory concentration (IC50) in series [1] lay in the range of 1 to 10 µM. For the same compound, the inhibition at 10 µM in series [2] is less than 50%.
With `O=C(O)c1ccc(CN2C(=O)C3(COc4cc5c(cc43)CCO5)c3ccccc32)cc1` (stereo not shown) [Example 11.31, 4-[(2′-oxo-5,6-dihydrospiro[benzo[1,2-b:5,4-b′]difuran-3,3′-indol]-1′(2′H)-yl)methyl]benzoic acid], the IC50 in series [1] was 0.1 to 1 µM. Also, the inhibition at 10 µM in series [2] was less than 50%.
For `N#Cc1cccc2c1C1(COc3cc4c(cc31)CCO4)C(=O)N2C[C@H]1CCCO1` (stereo partly drawn) [Example 11.35, 2′-oxo-1′-[(2R)-tetrahydrofuran-2-ylmethyl]-1′,2′,5,6-tetrahydrospiro[benzo[1,2-b:5,4-b′]difuran-3,3′-indole]-4′-carbonitrile] the same measures were 0.1 to 1 µM and less than 50%.
The matching figures for `CN(C)Cc1cccc2c1C1(COc3cc4c(cc31)CCO4)C(=O)N2C[C@H]1CCCO1` (stereo partly drawn) [Example 11.37, 4′-[(dimethylamino)methyl]-1′-[(2R)-tetrahydrofuran-2-ylmethyl]-5,6-dihydrospiro[benzo[1,2-b:5,4-b′]difuran-3,3′-indol]-2′(1′H)-one]: 1 to 10 µM and less than 50%.
For `O=C1N(C[C@H]2CCCO2)c2cccc(CN3CCCC3)c2C12COc1cc3c(cc12)CCO3` (stereo partly drawn) [Example 11.38, 4′-(pyrrolidin-1-ylmethyl)-1′-[(2R)-tetrahydrofuran-2-ylmethyl]-5,6-dihydrospiro[benzo[1,2-b:5,4-b′]difuran-3,3′-indol]-2′(1′H)-one] the same measures were 1 to 10 µM and less than 50%.
Turning to `CN1CCOC(CN2C(=O)C3(COc4cc5c(cc43)CCO5)c3ccccc32)C1` (stereo not shown) [Example 11.41, 1′-[(4-methylmorpholin-2-yl)methyl]-5,6-dihydrospiro[benzo[1,2-b:5,4-b′]difuran-3,3′-indol]-2′(1′H)-one], in series [1], the IC50 fell in the range of 0.1 to 1 µM. Further, the inhibition at 10 µM in series [2] is more than 50%.
